Consider one compound from US11666580B2, “Mechanism of resistance to bet bromodomain inhibitors” (Dana-Farber Cancer Institute, Inc., priority 2015, dated 2023).

The test system of test [1] is tumors derived from SUM159. As to the kind of experiment: Xenograft assay, SUM159. It is filed as in vivo, mice. The settings on record: two weeks of JQ1, 50 mg/kg daily. On the procedure:
(§1) For xenograft assays 5-6-weeks old female CrTac:NCr-Foxn1^nu and NOD.Cg-Prkdc^scid Il2rg^tm1Sug/JicTac mice were purchased from Taconic. Tumors were induced by bilateral orthotopic mammary fat pad injection of 1×10^6 cells in 50% Matrigel (BD Biosciences) in DMEM/F12 or Medium 171 (except for IDC50-X cells, which were injected with 3% FBS and 4 mg/ml collagen gel in Medium 171). Animal experiments were conducted following protocol 11-023 approved by the Dana-Farber Cancer Institute Animal Care and Use Committee.

The next test relates to SUM159 and SUM149 cells. In words: RNA-seq following JQ1 treatment. Format: cell-based, human. As to conditions: different time points following JQ1 500 nM. On the procedure:
Quantifying changes in gene expression of SE proximal genes. Genes within 50 kb of SE in SUM159 or SUM149 were identified and filtered for expression status (>1 FPKM expression in any sample), and filtered to remove non poly-adenylated transcripts (e.g. microRNAs). For SUM159, log2 fold changes in gene expression at SE associated genes or all expressed genes was compared at 3, 12, and 24 hours post JQ1 treatment (FIG. 2F). For SUM149, comparisons were made at 12 hours post JQ1 treatment (Extended Data FIG. 3B). The statistical significance of differences between distributions of changes was also assessed using a Welch's two-tailed t test.

For test [2], the system named is TNBC cells (SUM159 and MDA-MB-231). As to the kind of experiment: Senescence β-galactosidase staining. It is filed as cell-based, human. As to conditions: JQ1 500 nM, 72 h. The procedure:
(§2) Cell viability and growth assays (FIGS. 1A-1B, FIGS. 3A-3E, 3G, FIGS. 5D-5F, FIGS. 6C, 6E, 6I, FIG. 7A, FIG. 10D, FIGS. 14A-14C), cycle, apoptosis, and MDR assays were performed in triplicates and repeated 2-3 times. For cell proliferation assays, cells were plated at 500 cells per well in 96-well plates and treated the next day with inhibitors, DMSO or doxycycline (500 ng). Cells were cultured at 37° C. with 5% CO2 in the media described-above, and cell viability was measured using CellTiter-Glo three days after treatments. For cell growth assays, cells were plated at 5000 (SUM159) or 20000 (SUM149) cells per well in 6-well plates and treated the next day with inhibitors. Cells were counted every three days by cell counter. Cellular apoptosis was analyzed with an APC AnnexinV/7ADD Apoptosis Detection kit (BD Pharmingen). AnnexinV/7AAD assessments and cell cycle graphics were generated using FlowJo software V7.6.1 for Windows (Tree Star). Senescence Beta-gal staining was performed using Senescence β-Galactosidase staining kit from Cell signaling. Briefly, after JQ1 treatment (500 nM) for 72 h, SUM159 and MDA-MB-231 cells were fixed by Fixative Solution for 15 min, followed by β-Galactosidase solution incubation overnight at 37° C. The staining was checked under microscope for the development of blue color. […] The cells were analyzed by fluorescent microscope and FACS.

The subject of test [3] is pSTAT3, pJAK2 and MYC in SUM159 cells. In words: Immunoblot kinetic study of signaling factors after JQ1. It is filed as cell-based, human. From the text:
Immunoblotting and immunoprecipitation experiments were repeated 2-3 times.
A general note: In western blotting, separated proteins are transferred to a membrane and probed.

The subject of test [4] is tumors derived from MDA-MB-231. In words: Xenograft assay, MDA-MB-231. Format: in vivo, mice. As to conditions: two weeks of JQ1, 50 mg/kg daily. The procedure: as §1
Test [5] concerns the target BRD4-MED1 association in SUM159 cells (Homo sapiens, UniProt O60885). As to conditions: sensitive cells.
Protocol: Cells were lysed five days after transfection with siRNAs in RIPA buffer. Proteins were resolved in SDS-polyacrylamide gels (4%-12%) and transferred to PVDF membranes by using a Tris-glycine buffer system. Membranes were blocked with 5% milk powder in 0.1% Tween20 in PBS (PBS-T) for 1 hr at room temperature followed by incubation with primary antibodies at 1:1000 dilution in 2.5% milk PBS-T. For immunoprecipitation, nuclear extracts were prepared as follow: 10×10^6 cells were resuspended in 5 ml Buffer A: 10 mM Tris pH 7.9, 1.5 mM MgCl2, 10 mM KCl, 0.05% NP-40, 1 mM DTT, and protease and phosphatase inhibitors. Cells were incubated on ice for 15 min and gently vortexed every 5 min. After centrifugation at 2,000 g for 5 min, pellets were suspended in 0.3 ml buffer B (20 mM Tris pH 7.9, 25% glycerol, 0.42 M NaCl, 1.5 mM MgCl2, 1 mM KCl, 0.5% NP40, 0.2 mM EDTA, 1 mM DTT, and protease and phosphatase inhibitors) and incubated for 5 min on ice. After centrifugation of the lysates at 14 g for 10 min at 4° C., supernatant was diluted with 0.6 ml buffer A, and added NP-40 to final 0.5% and treated with DNase I. The samples were then incubated at 4° C. overnight with BRD4 or Flag antibodies at 1:100 dilution and immunoprecipitates were collected on Dynabeads Protein G for 2 hr. […]
For test [6], the system named is SUM159 cells. As to the kind of experiment: Cell cycle analysis of SUM159 cells synchronized with nocodazole in G2/M. Format: cell-based, human. The procedure: Cell cycle analysis was performed 72 hr after JQ1 treatment or BRD4 downregulation with doxycycline using propidium iodide (PI) staining. Cells were resuspended in 1 ml of growth medium supplemented with 2 μg/ml PI (Life Technologies) as final concentration. After 60 min at 37° C. in the dark, analysis was performed on a FACS AriaII cytometer (BD Biosciences). The cell cycle was plotted as histogram after excluding doublets. Cell synchronization Procedure. SUM159 cells were treated with nocodazole (200 ng/ml) for 12 h and then cells were tapped to detach from the plates. After washing twice with PBS, cells were replated with or without JQ1 in collagen coated plates. Cells were collected at 0, 3, 6, 12 h time point for FACS and immunoblot analysis.

A further test concerns TNBC cells. As to the kind of experiment: Immunofluorescence microscopy for basal and luminal markers. The settings on record: 3 days after JQ1 (500 nM). It is filed as cell-based, human. On the procedure:
Antibodies used for immunofluorescence were CK18 (Dako, M7010), CK17 (Dako, M7046), HMW (Dako, M0630), LMW (Dako, M0631), CD44 (NeoMarkers, MS-668-P1), CD24 (NeoMarkers, MS-1279-P1), p-STAT3 (Cell Signaling, 9145S), VIM (Dako, M073501), CDH1 (BD Biosciences, 610181), FLAG (Sigma, F1804), BrdU (Roche, 11170376001). Immunofluorescence experiments were performed in cultured cells or in whole sections of formalin-fixed paraffin embedded (FFPE) xenograft tumors. The staining was performed as described^50. Antibody dilutions were as follows: pSTAT3 (1:25), CD44 (1:100), CD24 (1:100), CK18 (1:200), CK17 (1:200), HMK (1:200), LMK (1:200), VIM (1:100), CDH1 (1:100), FLAG (1:50), and BrdU (1:200).

Test [7] concerns xenografts derived from SUM159R cells. As to the kind of experiment: Xenograft assay, SUM159R (BBI-resistant SUM159). It is filed as in vivo, mice. As to conditions: JQ1 for 30 days. The procedure: as §1
Test [8] deals with T1, chromatin-bound BRD4 in SUM159 cells (Homo sapiens, UniProt O60885). The settings on record: SUM159, JQ1 exposure.
Protocol: Chem-seq was performed essentially as described^27. ChIP-seq: SUM159 and SUM159R cells (4×10^7) were grown in SUM Medium. The media were then removed and replaced with media containing 1% formaldehyde (EM grade; tebu-bio) and crosslinked for 8 min. Crosslinking was quenched by adding glycine to a final concentration of 0.2 M. The cells were washed with ice-cold PBS, harvested in PBS, and the cell pellet was washed with PBS. The nuclear fraction was extracted by first resuspending the pellet in 10 ml of LB1 buffer (50 mM HEPES-KOH [pH 7.5], 140 mM NaCl, 1mMEDTA, 10% glycerol, 0.5% NP-40 or Igepal CA-630, and 0.25% Triton X-100) for 10 min at 4° C. Cells were pelleted, resuspended in 10 ml of LB2 buffer (10 mM Tris-HCL [pH 8.0], 200 mM NaCl, 1 mM EDTA, and 0.5 mM EGTA), and mixed for 5 min. Cells were pelleted and resuspended in 300 μl of LB3 buffer (10 mM Tris-HCl [pH 8], 100 mM NaCl, 1 mM EDTA, 0.5 mM EGTA, 0.1% Na-deoxycholate, and 0.5% N-lauroylsarcosine) and sonicated in a covaris sonicator for 10 min. A total of 30 μl of 10% Triton X-100 was added, and lysate was centrifuged for 10 min at 20,000 rcf to purify the debris. The supernatant was then incubated with 100 μl of magnetic beads (Life Technologies) prebound with 20 μg BRD4 antibody (Bethyl, A301-985A), and immunoprecipitation (IP) was conducted overnight in the cold room. […]
Test [9] deals with T1, chromatin-bound BRD4 in SUM159 cells.
Protocol: Chem-seq was performed essentially as described^27. ChIP-seq: SUM159 and SUM159R cells (4×10^7) were grown in SUM Medium. The media were then removed and replaced with media containing 1% formaldehyde (EM grade; tebu-bio) and crosslinked for 8 min. Crosslinking was quenched by adding glycine to a final concentration of 0.2 M. The cells were washed with ice-cold PBS, harvested in PBS, and the cell pellet was washed with PBS. The nuclear fraction was extracted by first resuspending the pellet in 10 ml of LB1 buffer (50 mM HEPES-KOH [pH 7.5], 140 mM NaCl, 1mMEDTA, 10% glycerol, 0.5% NP-40 or Igepal CA-630, and 0.25% Triton X-100) for 10 min at 4° C. Cells were pelleted, resuspended in 10 ml of LB2 buffer (10 mM Tris-HCL [pH 8.0], 200 mM NaCl, 1 mM EDTA, and 0.5 mM EGTA), and mixed for 5 min. Cells were pelleted and resuspended in 300 μl of LB3 buffer (10 mM Tris-HCl [pH 8], 100 mM NaCl, 1 mM EDTA, 0.5 mM EGTA, 0.1% Na-deoxycholate, and 0.5% N-lauroylsarcosine) and sonicated in a covaris sonicator for 10 min. A total of 30 μl of 10% Triton X-100 was added, and lysate was centrifuged for 10 min at 20,000 rcf to purify the debris. The supernatant was then incubated with 100 μl of magnetic beads (Life Technologies) prebound with 20 μg BRD4 antibody (Bethyl, A301-985A), and immunoprecipitation (IP) was conducted overnight in the cold room. The beads were washed ten times in 1 ml of RIPA buffer and twice in 100 mM ammonium hydrogen carbonate (AMBIC) solution. DNA was eluted in elution buffer (50 mM Tris-HCl pH 8, 10 mM EDTA, and 1% SDS). Cross-links were reversed overnight at 65° C. RNA and protein were digested with 0.2 mg/mL RNase A for 2 hr followed by 0.2 mg/mL Proteinase K for 1 hr. DNA was purified with phenol chloroform extraction and ethanol precipitation. Libraries for Illumina sequencing were prepared following the Rubicon ThruPLEX-FD kit for 10-12 cycles.
The test system of test [10] is SUM159 cells. In words: Apoptosis (sub-G1 fraction and Annexin-V staining). Format: cell-based, human. The settings on record: prolonged exposure 48-72 hours, JQ1 500 nM. On the procedure:
as §2, with “FACS. […]” for “FACS.”

The structures appear in SMILES notation. Like-named read-outs stand apart in the source and are kept apart here.

For `Cc1sc2c(c1C)C(c1ccc(Cl)cc1)=N[C@@H](CC(=O)OC(C)(C)C)c1nnc(C)n1-2` [JQ1], the Tumor growth result in [1] and in test [4] was “efficiently inhibited the growth of established tumors” each time. Also, the “Expression of super-enhancer associated genes versus all active genes” value with SUM159 and SUM149 cells is given as “significantly more likely to be down-regulated”. The “Acidic β-galactosidase activity (senescence)” value in [2] was “markedly increased acidic β-galactosidase activity”. The “pSTAT3 and pJAK2 levels” value in test [3] (SUM159, after 12 hours) was “decrease in pSTAT3 and pJAK2”. In test [3] (SUM159, at 24 hours), the MYC level result is “dose-responsive decrease in MYC”. For the same compound, the “Association of BRD4 with MED1” value in [5] is on record as “efficiently displaced BRD4 from MED1”. For the same compound, the “Cell cycle after release from G2/M” value in the test on SUM159 cells [6] (JQ1 (500 nM) added 3 hours after release) is given as “less pronounced effects”; in the test with SUM159 cells [6] (JQ1 (500 nM) administered 1 hour before release) it was “arrested in early G1 with high cyclin D1 levels”. Further, the “Basal markers (HMW cytokeratins)” value in the test on TNBC cells is “decrease of high molecular-weight (HMW) cytokeratins”. Moreover, the “Luminal markers (LMW cytokeratins, CK18)” value in the test on TNBC cells was “elevation of low molecular-weight (LMW) cytokeratins and cytokeratin 18 (CK18)”. In addition, in test [7], the “Tumor response to JQ1 treatment” value is reported as “not responsive”. Further, the “BRD4 occupancy at Chem-seq-defined SE regions” value is reported as “depleted of BRD4” in test [8] and “retain chromatin-bound BRD4” in [9] (SUM159R, JQ1 exposure). Moreover, in [9] (SUM159R, following JQ1 treatment), the “Displacement of BRD4 from chromatin” value is listed as “not displaced from chromatin”. Besides, the “Effect on H3K27ac or global transcription” value in test [9] (resistant cells) is listed as “fails to influence”. Moreover, the “Apoptotic response (sub-G1 fraction, Annexin-V staining)” value in the test on SUM159 cells [10] is recorded as “elicited an apoptotic response”.
